Experimental data from ChEMBL document CHEMBL3045951, “Toxicities and sublethal effects of seven neonicotinoid insecticides on survival, growth and reproduction of imidacloprid-resistant cotton aphid, Aphis gossypii” (2011).
≈ marks a conversion by molar mass, not a printed value.

Columns and labels:
Assay type in all cases: functional
Aphis gossypii [1] = assay: Insecticidal activity against imidacloprid-resistant Aphis gossypii (cotton aphid) in cotton leaves assessed as longevity at LC20 concentration
Aphis gossypii [2] = system: Aphis gossypii
Description: Insecticidal activity against imidacloprid-resistant Aphis gossypii (cotton aphid) in cotton leaves assessed as inhibition of honeydew excretion at LC20 concentration measured after 72 hr by dipping method

Aphis gossypii [3] = assay: Insecticidal activity against imidacloprid-resistant Aphis gossypii (cotton aphid) in cotton leaves assessed as mortality measured after 72 hr by dipping method
Aphis gossypii [4] = assay: Resistance ratio, LC50 for Aphis gossypii RF45 (cotton aphid) to LC50 for Aphis gossypii SS
Aphis gossypii [5] = assay: Insecticidal activity against imidacloprid-resistant Aphis gossypii RF45 (cotton aphid) in cotton leaves assessed as mortality measured after 48 hr by dipping method
Aphis gossypii [6] = assay: Insecticidal activity against Aphis gossypii SS (cotton aphid) in cotton leaves assessed as mortality measured after 48 hr by dipping method
Aphis gossypii [7] = assay: Insecticidal activity against cotton aphid Aphis gossypii F33 (cotton aphid) in cotton leaves assessed as mortality measured after 48 hr by dipping method
Aphis gossypii [8] = assay: Insecticidal activity against cotton aphid Aphis gossypii F27 (cotton aphid) in cotton leaves assessed as mortality measured after 48 hr by dipping method
Aphis gossypii [9] = assay: Insecticidal activity against cotton aphid Aphis gossypii F24 (cotton aphid) in cotton leaves assessed as mortality measured after 48 hr by dipping method
Aphis gossypii [10] = assay: Insecticidal activity against cotton aphid Aphis gossypii F21 (cotton aphid) in cotton leaves assessed as mortality measured after 48 hr by dipping method
Aphis gossypii [11] = assay: Insecticidal activity against cotton aphid Aphis gossypii F15 (cotton aphid) in cotton leaves assessed as mortality measured after 48 hr by dipping method
Aphis gossypii [12] = assay: Insecticidal activity against cotton aphid Aphis gossypii F18 (cotton aphid) in cotton leaves assessed as mortality measured after 48 hr by dipping method
Aphis gossypii [13] = assay: Insecticidal activity against cotton aphid Aphis gossypii F12 (cotton aphid) in cotton leaves assessed as mortality measured after 48 hr by dipping method
Aphis gossypii [14] = assay: Insecticidal activity against cotton aphid Aphis gossypii F6 (cotton aphid) in cotton leaves assessed as mortality measured after 48 hr by dipping method
Aphis gossypii [15] = assay: Insecticidal activity against cotton aphid Aphis gossypii F0 (cotton aphid) in cotton leaves assessed as mortality measured after 48 hr by dipping method
Aphis gossypii [16] = assay: Resistance ratio, LC50 for Aphis gossypii F42 (cotton aphid) to LC50 for Aphis gossypii F0
Aphis gossypii [17] = assay: Resistance ratio, LC50 for Aphis gossypii F45 (cotton aphid) to LC50 for Aphis gossypii F0
Aphis gossypii [18] = assay: Resistance ratio, LC50 for Aphis gossypii F39 (cotton aphid) to LC50 for Aphis gossypii F0
Aphis gossypii [19] = assay: Resistance ratio, LC50 for Aphis gossypii F36 (cotton aphid) to LC50 for Aphis gossypii F0
Aphis gossypii [20] = assay: Resistance ratio, LC50 for Aphis gossypii F30 (cotton aphid) to LC50 for Aphis gossypii F0
Aphis gossypii [21] = assay: Resistance ratio, LC50 for Aphis gossypii F33 (cotton aphid) to LC50 for Aphis gossypii F0
Aphis gossypii [22] = assay: Resistance ratio, LC50 for Aphis gossypii F27 (cotton aphid) to LC50 for Aphis gossypii F0
Aphis gossypii [23] = assay: Resistance ratio, LC50 for Aphis gossypii F21 (cotton aphid) to LC50 for Aphis gossypii F0
Aphis gossypii [24] = assay: Resistance ratio, LC50 for Aphis gossypii F24 (cotton aphid) to LC50 for Aphis gossypii F0
Aphis gossypii [25] = assay: Resistance ratio, LC50 for Aphis gossypii F18 (cotton aphid) to LC50 for Aphis gossypii F0
Aphis gossypii [26] = assay: Resistance ratio, LC50 for Aphis gossypii F15 (cotton aphid) to LC50 for Aphis gossypii F0
Aphis gossypii [27] = assay: Resistance ratio, LC50 for Aphis gossypii F12 (cotton aphid) to LC50 for Aphis gossypii F0
Aphis gossypii [28] = assay: Resistance ratio, LC50 for Aphis gossypii F9 (cotton aphid) to LC50 for Aphis gossypii F0
Aphis gossypii [29] = assay: Resistance ratio, LC50 for Aphis gossypii F6 (cotton aphid) to LC50 for Aphis gossypii F0
Aphis gossypii [30] = assay: Resistance ratio, LC50 for Aphis gossypii F3 (cotton aphid) to LC50 for Aphis gossypii F0
Aphis gossypii [31] = assay: Insecticidal activity against cotton aphid Aphis gossypii F9 (cotton aphid) in cotton leaves assessed as mortality measured after 48 hr by dipping method
Aphis gossypii [32] = assay: Insecticidal activity against cotton aphid Aphis gossypii F3 (cotton aphid) in cotton leaves assessed as mortality measured after 48 hr by dipping method
Aphis gossypii [33] = assay: Insecticidal activity against cotton aphid Aphis gossypii F45 (cotton aphid) in cotton leaves assessed as mortality measured after 48 hr by dipping method
Aphis gossypii [34] = assay: Insecticidal activity against cotton aphid Aphis gossypii F42 (cotton aphid) in cotton leaves assessed as mortality measured after 48 hr by dipping method
Aphis gossypii [35] = assay: Insecticidal activity against cotton aphid Aphis gossypii F36 (cotton aphid) in cotton leaves assessed as mortality measured after 48 hr by dipping method
Aphis gossypii [36] = assay: Insecticidal activity against cotton aphid Aphis gossypii F39 (cotton aphid) in cotton leaves assessed as mortality measured after 48 hr by dipping method
Aphis gossypii [37] = assay: Insecticidal activity against cotton aphid Aphis gossypii F30 (cotton aphid) in cotton leaves assessed as mortality measured after 48 hr by dipping method

CCN(Cc1ccc(Cl)nc1)/C(=C/[N+](=O)[O-])NC [NITENPYRAM]
Survival (Aphis gossypii [1]): 8.42 days | inhibition (INH) (Aphis gossypii [2]): 28.3% | LC20 (Aphis gossypii [3]): 10.5 µg/mL (≈ 38.8 µM) | RatioLC50 (Aphis gossypii [4]): 5.78 | LC50 (Aphis gossypii [5]): 14.3 microg/mL2 | LC50 (Aphis gossypii [6]): 2.47 microg/mL2

CN1COCN(Cc2cnc(Cl)s2)/C1=N\[N+](=O)[O-] [THIAMETHOXAM]
Survival (Aphis gossypii [1]): 6.78 days | inhibition (INH) (Aphis gossypii [2]): 73.7% | LC20 (Aphis gossypii [3]): 0.96 µg/mL (≈ 3.29 µM) | RatioLC50 (Aphis gossypii [4]): 1.06 | LC50 (Aphis gossypii [5]): 1.69 microg/mL2 | LC50 (Aphis gossypii [6]): 1.6 microg/mL2

CN/C(=N/CC1CCOC1)N[N+](=O)[O-] (stereo not drawn) [DINOTEFURAN]
Survival (Aphis gossypii [1]): 2.95 days | inhibition (INH) (Aphis gossypii [2]): 82.2% | LC20 (Aphis gossypii [3]): 0.88 µg/mL (≈ 4.35 µM) | RatioLC50 (Aphis gossypii [4]): 1.07 | LC50 (Aphis gossypii [5]): 1.29 microg/mL2 | LC50 (Aphis gossypii [6]): 1.2 microg/mL2

C/C(=N\C#N)N(C)Cc1ccc(Cl)nc1 [ACETAMIPRID]
Survival (Aphis gossypii [1]): 11.4 days | inhibition (INH) (Aphis gossypii [2]): 40.2% | LC20 (Aphis gossypii [3]): 8.36 µg/mL (≈ 37.5 µM) | RatioLC50 (Aphis gossypii [4]): 4.52 | LC50 (Aphis gossypii [5]): 12.4 microg/mL2 | LC50 (Aphis gossypii [6]): 2.73 microg/mL2

O=[N+]([O-])/N=C1\NCCN1Cc1ccc(Cl)nc1 [IMIDACLOPRID]
Survival (Aphis gossypii [1]): 13.6 days | inhibition (INH) (Aphis gossypii [2]): 23.4% | LC50 (Aphis gossypii [7]): 10.7 microg/mL2 | LC50 (Aphis gossypii [8]): 7.1 microg/mL2 | LC50 (Aphis gossypii [9]): 6.35 microg/mL2 | LC50 (Aphis gossypii [10]): 5.17 microg/mL2 | LC50 (Aphis gossypii [11]): 3.34 microg/mL2 | LC50 (Aphis gossypii [12]): 4.2 microg/mL2 | LC50 (Aphis gossypii [13]): 2.41 microg/mL2 | LC50 (Aphis gossypii [14]): 1.23 microg/mL2 | LC50 (Aphis gossypii [15]): 0.32 microg/mL2 | LC20 (Aphis gossypii [3]): 10.6 µg/mL (≈ 41.5 µM) | RatioLC50 (Aphis gossypii [4]): 41.7 | LC50 (Aphis gossypii [5]): 13.5 microg/mL2 | LC50 (Aphis gossypii [6]): 0.32 microg/mL2 | RatioLC50 (Aphis gossypii [16]): 41.1 | RatioLC50 (Aphis gossypii [17]): 41.7 | RatioLC50 (Aphis gossypii [18]): 39.3 | RatioLC50 (Aphis gossypii [19]): 38.2 | RatioLC50 (Aphis gossypii [20]): 28.5 | RatioLC50 (Aphis gossypii [21]): 33.4 | RatioLC50 (Aphis gossypii [22]): 22.2 | RatioLC50 (Aphis gossypii [23]): 16.2 | RatioLC50 (Aphis gossypii [24]): 19.8 | RatioLC50 (Aphis gossypii [25]): 13.1 | RatioLC50 (Aphis gossypii [26]): 10.4 | RatioLC50 (Aphis gossypii [27]): 7.53 | RatioLC50 (Aphis gossypii [28]): 4.81 | RatioLC50 (Aphis gossypii [29]): 3.84 | RatioLC50 (Aphis gossypii [30]): 1.72 | LC50 (Aphis gossypii [31]): 1.54 microg/mL2 | LC50 (Aphis gossypii [32]): 0.55 microg/mL2 | LC50 (Aphis gossypii [33]): 13.5 microg/mL2 | LC50 (Aphis gossypii [34]): 13.2 microg/mL2 | LC50 (Aphis gossypii [35]): 12.2 microg/mL2 | LC50 (Aphis gossypii [36]): 12.6 microg/mL2 | LC50 (Aphis gossypii [37]): 9.12 microg/mL2

CN/C(=N\[N+](=O)[O-])NCc1cnc(Cl)s1 [CLOTHIANIDINE]
Survival (Aphis gossypii [1]): 6.61 days | inhibition (INH) (Aphis gossypii [2]): 72.7% | LC20 (Aphis gossypii [3]): 1.23 µg/mL (≈ 4.93 µM) | RatioLC50 (Aphis gossypii [4]): 1.2 | LC50 (Aphis gossypii [5]): 2.18 microg/mL2 | LC50 (Aphis gossypii [6]): 1.82 microg/mL2

N#C/N=C1\SCCN1Cc1ccc(Cl)nc1 [THIACLOPRID]
Survival (Aphis gossypii [1]): 10.6 days | inhibition (INH) (Aphis gossypii [2]): 36.9% | LC20 (Aphis gossypii [3]): 5.45 µg/mL (≈ 21.6 µM) | RatioLC50 (Aphis gossypii [4]): 3.68 | LC50 (Aphis gossypii [5]): 8.69 microg/mL2 | LC50 (Aphis gossypii [6]): 2.36 microg/mL2
